Reference: patent US20180360721A1, “PEPTIDE FOR STIMULATING MELANOGENESIS” (priority 2017, published 2018)
Where a SMILES comes first, the peptide text is derived from it.

Test system: B16F10 cells
Assay: MTT assay of cell viability
Format: cell-based, mouse
Details: different concentrations, 24, 48 or 72 hours
Experimental: B16F10 is a melanoma cell line isolated from mouse skin (American Type Culture Collection, USA) and was cultured in phenol red-free Dulbecco's Modified Eagle Medium (DMEM) containing 10% (v/v) FBS and penicillin/streptomycin (100 IU/[…]) in 5% CO2 at 37° C.
The cells (2×10^3) in 100 μl complete DMEM were seeded in 96-well plates and treated with the peptide of SEQ ID NO: 1 at different concentrations. The cells treated with ddH2O was used as controls. Ten microliters of 5 mg/ml 3-(4,5-dimethyl-2-thiazolyl)-2,5-diphenyl-2H-tetrazolium bromide solution (MTT; Sigma) was added to each well and incubated at 37° C. for 3 hours. After that, 100 μl 10% SDS in 0.01N HCl was added to dissolve the MTT formazan crystals. The resultant optical density was measured by spectrophotometry at dual wavelengths, 550 and 630 nm.

C[C@H](NC(=O)[C@H](CO)NC(=O)[C@@H](N)CC(N)=O)C(=O)N[C@H](C(=O)N[C@@H](CCC(=O)O)C(=O)N[C@@H](CCCNC(=N)N)C(=O)N[C@@H](CCC(=O)O)C(=O)O)[C@@H](C)O [peptide of SEQ ID NO: 1, AsnSerAlaThrGluArgGlu] (H-NSATERE-OH)
cell viability (MTT): did not significantly affect the viability
cell viability (MTT) (listed as peptide having the amino acid sequence of SEQ ID NO: 1): did not significantly affect viability
